Experimental data: patent publication US8080582B2, “Derivatives of 8-epiblechnic acid and their effects on down-regulation of endothelin (ETA) receptor mRNA” (ScinoPharm Taiwan Ltd., priority 2008, dated 2011)
“Also recorded” adds a separate entry of the source.

Assays:
Format in all cases: cell-based
[1] = system: Vascular smooth muscle cells (cell line A10); test: MTT cell viability / observation of normal vascular smooth muscle cells (A10); details: 48 hrs; for Precipitation in the treated sample: dissolved in DMSO, added to A10 cells, 0.2 mM
Description: (§1) The cells (1×10^5 cells/well in 24-well plates) were cultured for 24 hrs. Different concentrations of Sal-B and its analogs (0, 50, 100, 150, 200, 250 μg/ml) were added to treat the cells. After treating for 48 hrs, 100 μl MTT solution was added to each well, and the plate was placed in an incubator for 1-4 hrs. After adding 400 μl DMSO to treat the cells for 30 min., 200 μl samples were collected and placed in a 96-well plate to conduct the absorption measurement at 550 nm.
Cell viability testing (MTT testing) was employed to determine the cytotoxicity of Sal-B and EBA to vascular smooth muscle cells. Vascular smooth muscle cells (cell line A10) were treated with Sal-B and EBA at concentrations of 0, 0.1, 0.2, 0.3, 0.4, and 0.5 mM. After treating for 48 hrs, MTT was added and allowed to react for 3 hrs at 37° C. Then, DMSO was added and allowed to react for 30 min., after that, the OD570 absorption values were measured. Cell viability was still 90% when the drug concentration reached 0.2 mM.
Sal-B's analogs, compounds A to F, were dissolved in DMSO, and then added to A10 cells to observe the results.

ETAR mRNA expression = test: Real-time quantitative RT-PCR of ETAR mRNA in smooth muscle cells (A10); details: A10 smooth muscle cells, 0.2 mM, 48 hrs, vs DMSO control, FIG. 4, read-out: ETAR mRNA remaining after the treatment
Description: Extraction of cellular RNA: Subculturing smooth muscle cells to 100-mm culture dishes. After the cells had filled the culture dishes, Sal-B and its analogs were added to treat the cells for 48 hrs. After that, 1×PBS solutions were added to wash the cells three times. After adding 1 ml TRIzol, the cells were scraped off and placed in 1.5 ml micro-centrifuge tubes. Following the addition of 0.2 ml chloroform to each tube, the tubes were shaken, left at room temperature for 3 min., and run in a centrifuge at 12,000 rpm for 15 min. The supernatant liquid was removed and the cells placed in new micro-centrifuge tubes. After adding an amount of isopropyl alcohol equivalent to one-half of the volume of the supernatant liquid, and mixing until homogeneous, the samples were allowed to stand at room temperature for 10 min. The supernatant liquid was removed after centrifugation at 12,000 rpm for 10 min. 1 ml 70% alcohol was added to wash out salts, followed by centrifugation for 5 min. and removal of supernatant liquid. The samples were dissolved in 50 μl DEPC-H2O after drying.
(1) cDNA synthesis: 1 μl Random hexamer primer (20 μM) and 1 μl dNTP(10 mm) were added to 3 μg RNA, which was allowed to react at 65° C. for 5 min., and then placed on ice promptly. After the addition of 2 μl 10× reaction buffer, 0.5 μl RNaseOUT (40 unit/μl) and 1 μl SuperScript III RT (200 unit/μl), the solution was mixed until homogeneous, and allowed to react at 50° C. for 50 min. After that, the mixture was heated to 85° C. for 5 min. to terminate the enzymatic reaction. The samples were preserved at −70° C. for later use.
(2) PCR quantitative analysis: After adding 7.5 μl PCR primer mix (400 nm each) and 15 μl SYBR Green dye reagent to the 7.5 μl cDNA template, the solution was placed in Bio-Rad's iCycler for PCR reaction. The resulting data was inputted into Gene Expression Analysis for iCycler iQ Real-Time PCR Detection System for quantitative analysis of gene expression.
Furthermore, after treating vascular smooth muscle cells with 100 μg/ml of either Sal-B or EBA for 48 hrs, the identical concentrations of cellular whole RNA were sampled for the synthesis of cDNA by using reverse transcriptase. The PCR method was employed to determine the amounts of endothelin receptor mRNA expression. […] For the analysis of ETAR mRNA expression by using the real-time PCR method, vascular smooth muscle cells at full confluence 100-mm culture dishes were treated with 100 μg/ml of either Sal-B or EBA for 48 hrs. The identical concentrations of cellular whole RNA were sampled for the synthesis of cDNA by using reverse transcriptase. The real-time PCR method was used to compare the amounts of ETAR mRNA expression.
The different analogs, compounds A to F, had different effects on ETAR mRNA expression. The control group represented treating smooth muscle cells (A10) with DMSO, and the positive control group represented treating the cells with Sal-B. The smooth muscle cells were treated with 0.2 mM Sal-B and compounds A to F for 48 hrs. The identical concentrations of cellular RNA were sampled for the synthesis of cDNA by using reverse transcriptase. The real-time PCR method was employed to determine the amounts of ETAR mRNA expression. Compared with the control group, compound B had the least effect on down-regulating ETAR mRNA expression, as approximately 50% of the ETAR mRNA remained after the treatment. […]

[2] = system: nasopharyngeal cancer cells (Hone-1); test: MTT cell viability, nasopharyngeal cancer cells; details: Hone-1 cells, summary statement
Description: as §1
(§2) Cancer cells were treated with Sal-B and EBA at concentrations of 0, 0.1, 0.2, 0.3, 0.4, 0.5 mM. After treating for 48 hrs, MTT was added, and then allowed to react for 3 hrs at 37° C. After that, DMSO was added and allowed to react for 30 min., the OD570 absorption values were measured. Cell viability was above 80% when nasopharyngeal cancer cells (Hone-1) were treated with […] Sal-B and EBA. […] But the cell viability remained above 70% for treating with 0.1 mM and 0.2 mM EBA. Similar results were obtained when prostate cancer cells (PC-3) were treated with the drugs: Cell viability was above 80% for treating PC-3 cells with 0.2 mM Sal-B or EBA.

[3] = system: prostate cancer cells (PC-3); test: MTT cell viability, prostate cancer cells; details: for Viability of PC-3 cells as the concentration is increased: PC-3, MTT, increasing concentration, FIG. 1
Description: as §1, §2
MTT testing was employed to observe the viability of cancer cells after treating with Sal-B and the six synthetic analogs.

[4] = system: normal mammary gland cell line (A1N4); test: Cytotoxicity test on normal mammary gland cells; details: A1N4 normal mammary gland cells, FIG. 2
Description: as §1

PC-3 cancer cells = test: Flow cytometry cell cycle analysis (sub-G1, apoptosis) of PC-3 cells; details: PC-3, 0.01 mM, 48 hrs, PI flow cytometry; control around 1.18%
Description: After suspending cells, the precooled 70% ethanol was used for fixing the cells. After centrifuging the mixture for 10 min. at 3,000 rpm, supernatant liquid was removed. Propidium iodide (PI) buffer (0.1% Triton X-100, 0.2 μg/ml RNase A, 40 μg/ml PI) was added, and then the solution was kept still at 37° C. for 30 min. After that, the cell cycle analysis was conducted by flow cytometry.
Flow cytometry was used to determine whether Sal-B and its analogs induced apoptosis in cancer cells. After treating PC-3 cancer cells with 0.4 mM Sal-B and EBA, and 0.01 mM compounds B and A for 48 hrs, the cells were collected and allowed to react with PI buffer for 30 min. Flow cytometry was then employed to measure the cell cycle. Approximately 5.16% of PC-3 cancer cells were at sub-G1 phase after treating with Sal-B, roughly 5.27% were at sub-G1 phase after treating with compound B, and roughly 8.54% were at sub-G1 phase after treating with compound A. However, for the control, only around 1.18% of the cells were at sub-G1 phase. Therefore, Sal-B and its analogs (compounds B and A) thus caused a significant increase in the percentage of cells at sub-G1 phase.

SMILES	Precipitation in the treated sample [1]	mrna remaining at 200 µM (ETAR mRNA expression)	Cytotoxicity / cell death in A10 cells ([1]; A10 cells, 0.2 mM in DMSO)	Inhibition of growth of Hone-1 cells [2]	Viability of PC-3 cells as the concentration is increased [3]	Toxicity to PC-3 cells relative to Sal-B ([3]; PC-3 cells, compared with Sal-B)	Cytotoxicity to normal cells [4]	PC-3 cancer cells at sub-G1 phase (PC-3 cancer cells)
COC(=O)C1Cc2cc(OC)c(OC)cc2CN1C(=O)/C=C/c1cc(OC)c2c(c1)C(C(=O)N1Cc3cc(OC)c(OC)cc3CC1C(=O)OC)C(c1ccc(OC)c(OC)c1)O2 (stereo not drawn) [Compound E]	significant precipitation							
COC(=O)C(Cc1ccc(OC)c(OC)c1)NC(=O)/C=C/c1cc(OC)c2c(c1)C(C(=O)NC(Cc1ccc(OC)c(OC)c1)C(=O)OC)C(c1ccc(OC)c(OC)c1)O2 (stereo not drawn) [Compound C, 2-(3,4-dimethoxyphenyl)-7-methoxy-5-{(E)-2-[1-(methoxycarbonyl)-2-(3,4-dimethoxyphenyl)-ethylcarbamoyl]-vinyl}-2,3-dihydro-benzofuran-3-carboxylic acid-1-(methoxycarbonyl)-[2-(3,4-dimethoxyphenyl)-ethyl]-amide]		< 20%						
COC(=O)C(Cc1ccc(OC)c(OC)c1)NC(=O)/C=C/c1ccc(OC)c2c1C(C(=O)NC(Cc1ccc(OC)c(OC)c1)C(=O)OC)C(c1ccc(OC)c(OC)c1)O2 (stereo not drawn) [Compound A, 2-(3,4-dimethoxyphenyl)-7-methoxy-4-{(E)-2-[1-(methoxycarbonyl)-2-(3,4-dimethoxyphenyl)-ethylcarbamoyl]-vinyl}-2,3-dihydro-benzofuran-3-carboxylic acid-1-(methoxycarbonyl)-[2-(3,4-dimethoxyphenyl)-ethyl]-amide]		< 20%	high level of cell death; also recorded: relatively high cytotoxicity	significantly inhibit the growth	led to the similar results	ten times more toxic to PC-3 cells than Sal-B	low toxicity to normal cells	roughly 8.54%
COC(=O)C(Cc1ccccc1)NC(=O)/C=C/c1ccc(OC)c2c1C(C(=O)NC(Cc1ccc(OC)c(OC)c1)C(=O)OC)C(c1ccc(OC)c(OC)c1)O2 (stereo not drawn) [Compound B, 2-(3,4-dimethoxyphenyl)-7-methoxy-4-{(E)-2-[1-(methoxycarbonyl)-2-phenyl-ethylcarbamoyl]-vinyl}-2,3-dihydro-benzofuran-3-carboxylic acid-1(methoxycarbonyl)-[2-(3,4-dimethoxyphenyl)-ethyl]-amide]	significant precipitation	~50%		significantly inhibit the growth	led to the similar results		relatively toxic to normal cells	roughly 5.27%
